# Source: US8618068B2, “Methods and low dose regimens for treating red blood cell disorders” (priority 2009, dated 2013)
# Assays:
# CYP2C9 = target: T1, CYP2C9 (Homo sapiens, UniProt P11712); test: Cytochrome P450 inhibition in human hepatic microsomes; type: in vitro ADME
# T1 construct: from tissue; host or cells: human hepatic microsomes
# Method: (§1) The inhibitory potential of DMB on the human cytochrome P450 activities involved in the metabolism of phenacetin O-deethylase (CYP1A2), bupropion hydroxylase (CYP2B6), amodiaquine N-deethylase (CYP2C8), diclofenac 4′-hydroxylase (CYP2C9), S-mephenyloin 4′-hydroxylase (CYP2C19), bufuralol 1′-hydroxylase (CYP2D6), testosterone 6β-hydroxylase (CYP3A), and midazolam 1′-hydroxylase (CYP3A) was assessed in vitro using human hepatic microsomes. Microsomes were incubated with isoenzyme-selective substrates at concentrations approximating the Km value in the absence and presence of DMB (at concentrations ranging from 0.1 to […]). The extent of inhibition was assessed by comparing activities from control and DMB-treated microsomes. […] Percent activity remaining was high for all cytochrome P450 assays with 80% activity remaining compared with control activities.
# CYP1A2 = target: T2, CYP1A2 (Homo sapiens, UniProt P05177); test: as above; type: in vitro ADME
# T2 construct: from tissue; host or cells: human hepatic microsomes
# Method: as §1
# CYP2C19 = target: T3, CYP2C19 (Homo sapiens, UniProt P33261); test: as above; type: in vitro ADME
# T3 construct: from tissue; host or cells: human hepatic microsomes
# Method: as §1
# CYP3A = test: as above; type: in vitro ADME
# Method: as §1
# CYP2B6 = target: T4, CYP2B6 (Homo sapiens, UniProt P20813); test: as above; type: in vitro ADME
# T4 construct: from tissue; host or cells: human hepatic microsomes
# Method: as §1
# CYP2C8 = target: T5, CYP2C8 (Homo sapiens, UniProt P10632); test: as above; type: in vitro ADME
# T5 construct: from tissue; host or cells: human hepatic microsomes
# Method: as §1
# CYP2D6 = target: T6, CYP2D6 (Homo sapiens, UniProt P10635); test: as above; type: in vitro ADME
# T6 construct: from tissue; host or cells: human hepatic microsomes
# Method: as §1
# γ-globin mRNA [1] = test: γ-globin mRNA in μLCR-human Aγ-globin transgenic mice; type: in vivo; settings: after treatment with DMB
# Text: (§2) Transgenic mice containing the human β globin gene locus in a yeast artificial chromosome (βYAC) displaying the correct developmental regulation of ε-, γ-, and β-globin genes (with a silenced y-globin gene in the adult stage) were used to study the effects of DMB on γ-globin induction and erythroid cell production. In the μLCR-human A γ-globin transgenic mice, the y-globin mRNA expression relative to murine α-globin mRNA was increased by a mean of 1.8-fold above the baseline after treatment with DMB. In the βYAC transgenic mice at intraperitoneal (IP) doses of 500 mg/kg/day, DMB induced a 2-fold increase in human γ-globin mRNA synthesis relative to that of total non-α-globin. This level of induction was similar to that seen with 1,000 mg/kg/day of butyrate, and the changes were observed from 3 days after treatment initiation and persisted until 3 to 5 days after treatment termination.
# clinical = settings: human, in vivo
# Method: Patients were monitored every 2 weeks for laboratory studies, physical examinations, and adverse events. Further, patients were followed for hematologic parameters primarily focusing on hemoglobin and fetal hemoglobin (HbF). In addition, pharmacokinetic samples were obtained on Day 0 and 13, at pre-dose and 2, 4, 6, 8, 12, and 24 hours post-dosing. Hemoglobin was measured at each site using standard hematology equipment. HbF was measured using Varian HPLC. […] Adverse events in treated subjects included headache, upper respiratory infection, pyrexia, fatigue, nausea, and dizziness, but the rates of such events were not markedly different from those observed in the placebo-treated subjects.
# A noncompartmental PK analysis was conducted using steady state concentration-time data for Day 13.
# reticulocyte counts = test: Reticulocyte counts in transgenic mice; type: in vivo; settings: 500 mg/kg/day
# Text: as §2
# Reticulocytosis was observed from day 3 up to day 12 (at the end of sampling).
# in vivo [2] = test: in vivo; design: species or system baboon; settings: po
# Method: Additionally, the pharmacokinetic profile of DMB was evaluated in a female baboon who received an IV dose of 50 mg/kg and single oral doses of 100, 150 and 200 mg/kg. Following IV administration, DMB concentrations peaked at the end of dose administration and decayed in a log-linear fashion with no obvious appearance of a distribution phase and after oral administration, the concentration reached a peak within 2 hours after dosing and subsequently decayed in a log-linear fashion at all three dose levels. There was a secondary DMB peak which occurred at 6 hours after dosing of the 200 mg/kg oral dose (FIG. 4).
# Vz/F was consistently smaller as the dose was increased.
# γ-globin mRNA [3] = test: γ-globin mRNA in anemic baboons given HU and DMB; type: in vivo; settings: HU 3 days/week
# in vivo [4] = type: in vivo
# Text: Completed toxicology studies conducted with DMB include a single-dose toxicity study in Sprague-Dawley rats, escalating dose toxicity study in Beagle dogs, a repeat dose study of 14-Day duration in Sprague-Dawley rats and repeat-dose toxicity studies of 28-Day duration in Sprague-Dawley rats and Beagle dogs, and 26-Week studies in Sprague-Dawley rats and Beagle dogs. […] Reproductive toxicity studies include two dose-range finding studies, one in Sprague-Dawley rats, the other in New Zealand white rabbits. DMB was administered once a day (QD) orally via gavage; doses are expressed as the sodium salt. In addition, an array of genotoxicity studies were conducted with DMB.
# There were no abnormal macroscopic or microscopic observations associated with the elevated kidney or brain weights. These treatment-related findings were not considered adverse. The NOAEL for DMB administered to Sprague-Dawley rats for a minimum of 181 days was considered to be 500 mg/kg/day, whereas the NOEL for female Sprague-Dawley rats was 100 mg/kg/day.
# Solubility in water = type: physicochemical
# [5] = compared with control activities
# T3 sequence (P33261 whole entry): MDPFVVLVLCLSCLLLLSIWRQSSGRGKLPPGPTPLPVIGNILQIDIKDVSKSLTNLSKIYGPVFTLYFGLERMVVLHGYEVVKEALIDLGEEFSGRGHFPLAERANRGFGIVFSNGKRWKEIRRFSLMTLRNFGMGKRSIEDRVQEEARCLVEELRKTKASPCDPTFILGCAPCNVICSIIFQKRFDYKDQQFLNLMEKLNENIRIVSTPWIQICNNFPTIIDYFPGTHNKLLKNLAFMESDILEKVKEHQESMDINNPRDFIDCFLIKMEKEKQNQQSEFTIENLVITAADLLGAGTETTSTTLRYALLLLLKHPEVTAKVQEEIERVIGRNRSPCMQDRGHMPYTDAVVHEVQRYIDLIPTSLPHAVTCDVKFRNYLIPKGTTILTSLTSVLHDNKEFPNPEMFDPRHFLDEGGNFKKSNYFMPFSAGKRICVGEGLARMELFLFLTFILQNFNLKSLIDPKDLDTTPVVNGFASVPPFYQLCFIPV
# T2 sequence (P05177 whole entry): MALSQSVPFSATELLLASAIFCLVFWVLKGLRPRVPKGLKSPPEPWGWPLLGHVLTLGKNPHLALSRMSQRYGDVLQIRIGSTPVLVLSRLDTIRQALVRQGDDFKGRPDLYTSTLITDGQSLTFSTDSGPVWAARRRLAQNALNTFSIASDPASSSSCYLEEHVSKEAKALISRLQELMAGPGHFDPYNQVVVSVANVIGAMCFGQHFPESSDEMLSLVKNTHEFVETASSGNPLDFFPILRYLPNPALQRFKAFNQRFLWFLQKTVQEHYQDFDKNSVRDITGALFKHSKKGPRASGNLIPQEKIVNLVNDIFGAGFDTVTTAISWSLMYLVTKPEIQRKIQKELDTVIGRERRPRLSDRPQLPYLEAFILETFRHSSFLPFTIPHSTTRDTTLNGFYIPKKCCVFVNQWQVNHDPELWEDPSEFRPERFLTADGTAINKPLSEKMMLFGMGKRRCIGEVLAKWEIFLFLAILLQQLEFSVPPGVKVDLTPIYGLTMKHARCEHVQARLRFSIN
# T5 sequence (P10632 whole entry): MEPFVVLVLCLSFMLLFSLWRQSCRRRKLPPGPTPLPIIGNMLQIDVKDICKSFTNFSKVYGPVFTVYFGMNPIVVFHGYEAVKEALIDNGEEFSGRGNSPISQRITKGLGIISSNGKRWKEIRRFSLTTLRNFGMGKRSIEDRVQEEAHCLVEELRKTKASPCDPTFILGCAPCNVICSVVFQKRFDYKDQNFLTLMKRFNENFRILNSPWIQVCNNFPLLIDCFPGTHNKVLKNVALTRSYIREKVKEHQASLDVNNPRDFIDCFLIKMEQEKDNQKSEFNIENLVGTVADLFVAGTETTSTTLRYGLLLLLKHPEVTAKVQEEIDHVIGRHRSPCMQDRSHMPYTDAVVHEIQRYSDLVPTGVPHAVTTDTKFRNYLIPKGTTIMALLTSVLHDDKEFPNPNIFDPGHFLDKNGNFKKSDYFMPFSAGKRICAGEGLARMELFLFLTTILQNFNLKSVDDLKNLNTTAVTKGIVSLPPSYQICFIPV
# T4 sequence (P20813 whole entry): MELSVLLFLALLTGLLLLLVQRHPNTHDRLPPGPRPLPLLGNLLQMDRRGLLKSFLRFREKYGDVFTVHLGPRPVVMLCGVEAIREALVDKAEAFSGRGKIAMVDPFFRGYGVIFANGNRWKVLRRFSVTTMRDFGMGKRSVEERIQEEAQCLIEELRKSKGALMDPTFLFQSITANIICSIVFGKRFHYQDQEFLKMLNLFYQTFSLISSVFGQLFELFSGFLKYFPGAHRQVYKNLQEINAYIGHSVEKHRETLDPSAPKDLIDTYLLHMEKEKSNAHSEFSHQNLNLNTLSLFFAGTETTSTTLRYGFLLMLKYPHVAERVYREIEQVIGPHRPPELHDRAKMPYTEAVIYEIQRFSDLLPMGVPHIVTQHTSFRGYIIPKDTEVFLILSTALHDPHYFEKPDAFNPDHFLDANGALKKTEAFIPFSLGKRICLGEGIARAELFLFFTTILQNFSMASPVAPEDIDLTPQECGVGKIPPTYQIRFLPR
# T6 sequence (P10635 whole entry): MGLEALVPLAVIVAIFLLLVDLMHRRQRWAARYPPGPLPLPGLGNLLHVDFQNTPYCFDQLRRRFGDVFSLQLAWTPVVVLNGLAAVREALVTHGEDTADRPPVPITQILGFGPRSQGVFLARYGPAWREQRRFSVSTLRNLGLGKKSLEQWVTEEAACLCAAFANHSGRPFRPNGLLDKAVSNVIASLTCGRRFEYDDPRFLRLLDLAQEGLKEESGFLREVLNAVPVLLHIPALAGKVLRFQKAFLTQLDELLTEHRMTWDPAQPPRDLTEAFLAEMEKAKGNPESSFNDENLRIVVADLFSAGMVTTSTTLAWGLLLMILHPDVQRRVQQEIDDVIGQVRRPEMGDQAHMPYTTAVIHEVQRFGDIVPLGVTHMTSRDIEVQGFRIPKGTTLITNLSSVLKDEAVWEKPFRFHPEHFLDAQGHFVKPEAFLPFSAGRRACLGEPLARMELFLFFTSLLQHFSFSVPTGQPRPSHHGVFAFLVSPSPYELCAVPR
# T1 sequence (P11712 whole entry): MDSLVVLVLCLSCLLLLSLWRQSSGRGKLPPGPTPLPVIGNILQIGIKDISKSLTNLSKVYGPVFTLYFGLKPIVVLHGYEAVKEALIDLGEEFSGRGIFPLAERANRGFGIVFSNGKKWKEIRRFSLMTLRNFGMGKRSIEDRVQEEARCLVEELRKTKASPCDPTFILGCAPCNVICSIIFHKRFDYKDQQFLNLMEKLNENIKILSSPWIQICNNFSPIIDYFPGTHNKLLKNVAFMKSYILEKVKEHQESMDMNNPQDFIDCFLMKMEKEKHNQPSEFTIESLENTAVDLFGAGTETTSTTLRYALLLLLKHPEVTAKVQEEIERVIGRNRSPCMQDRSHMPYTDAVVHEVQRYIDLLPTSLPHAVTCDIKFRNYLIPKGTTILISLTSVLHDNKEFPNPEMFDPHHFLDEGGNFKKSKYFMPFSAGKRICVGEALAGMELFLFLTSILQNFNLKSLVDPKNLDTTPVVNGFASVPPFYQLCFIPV
smiles,measurement,setting,value
"CCC(C)(C)C(=O)[O-].[Na+] [DMB, Sodium 2,2-dimethylbutyrate]",inhibition of diclofenac 4′-hydroxylase (CYP2C9),CYP2C9; DMB up to 300 μM,no significant inhibition
same,"Percent activity remaining, diclofenac 4′-hydroxylase (CYP2C9)",CYP2C9; [5],80%
same,inhibition of phenacetin O-deethylase (CYP1A2),CYP1A2; DMB up to 300 μM,no significant inhibition
same,"Percent activity remaining, phenacetin O-deethylase (CYP1A2)",CYP1A2; [5],80%
same,inhibition of S-mephenyloin 4′-hydroxylase (CYP2C19),CYP2C19; DMB up to 300 μM,no significant inhibition
same,"Percent activity remaining, S-mephenyloin 4′-hydroxylase (CYP2C19)",CYP2C19; [5],80%
same,inhibition of midazolam 1′-hydroxylase (CYP3A),CYP3A; DMB up to 300 μM,no significant inhibition
same,inhibition of testosterone 6β-hydroxylase (CYP3A),CYP3A; DMB up to 300 μM,no significant inhibition
same,"Percent activity remaining, midazolam 1′-hydroxylase (CYP3A)",CYP3A; [5],80%
same,"Percent activity remaining, testosterone 6β-hydroxylase (CYP3A)",CYP3A; [5],80%
same,inhibition of bupropion hydroxylase (CYP2B6),CYP2B6; DMB up to 300 μM,no significant inhibition
same,"Percent activity remaining, bupropion hydroxylase (CYP2B6)",CYP2B6; [5],80%
same,inhibition of amodiaquine N-deethylase (CYP2C8),CYP2C8; DMB up to 300 μM,no significant inhibition
same,"Percent activity remaining, amodiaquine N-deethylase (CYP2C8)",CYP2C8; [5],80%
same,inhibition of bufuralol 1′-hydroxylase (CYP2D6),CYP2D6; DMB up to 300 μM,no significant inhibition
same,"Percent activity remaining, bufuralol 1′-hydroxylase (CYP2D6)",CYP2D6; [5],80%
same,"γ-globin mRNA expression relative to murine α-globin mRNA, mean increase above baseline",γ-globin mRNA [1],1.8 fold
same,Tmax,clinical,2.5 to 3.1 h
same,half-life,clinical; 10 mg/kg,12.1 h
same,half-life,clinical; 40 mg/kg,10.3 h
same,increase in reticulocyte counts,reticulocyte counts,approximately 6.7 fold
same,half-life,"in vivo [2]; female, monkey",2.89 to 6.92 h
same,bioavailability,"in vivo [2]; female, monkey, 100 mg/kg",71.8%
same,Tmax,"in vivo [2]; female, monkey, 200 mg/kg",1.5 to 2 h
same,CL/F at 200 mg/kg relative to the lower doses,in vivo [2]; 200 mg/kg,about ¼
same,γ-globin mRNA increase above baseline,γ-globin mRNA [3],290%
same,NOAEL at 181 days,"in vivo [4]; both sexes, rat, in vivo, minimum of 181 days, oral",500 mg/kg/day
same,mortalities or clinical observations,"in vivo [4]; daily oral, 26 weeks",no test article-associated mortalities or clinical observations
same,NOEL,"in vivo [4]; female, Sprague-Dawley, rat, in vivo, 181 days",100 mg/kg/day
same,adverse effects,"in vivo [4]; rat, in vivo",no adverse effects
same,mean absolute and relative liver weights,"in vivo [4]; rat, in vivo, 500 mg/kg/day",associated increases
same,solubility,Solubility in water,> 500 mg/mL
